In PMC8062000, “High-throughput screening of the ReFRAME, Pandemic Box, and COVID Box drug repurposing libraries against SARS-CoV-2 nsp15 endoribonuclease to identify small-molecule inhibitors of viral activity” (PLoS ONE, 2021):
Values joined by “and” are separate entries in the source; they are usually repeats but may differ in a detail not shown here. Identical values can stand only once. Like-named read-outs stand apart in the source and are kept apart here.

Experiments:
[1] = biological target: T1, SARS-CoV-2 nsp15 endoribonuclease (endoU) (Severe acute respiratory syndrome coronavirus 2, UniProt P0DTD1); test: biochemical; format: biochemical; settings: for inhibition at 10 µM: read-out: 1° FRET Assay % inhibition
[2] = biological target: T2, SARS-CoV-2 nsp15 (Severe acute respiratory syndrome coronavirus 2, UniProt P0DTD1); format: binding
[3] = system: SARS-CoV-2; test: microbe, parasite or virus in culture; format: cell-based; settings: for protection against viral CPE: Vero 76
[4] = Mammalian cytotoxicity assay, HepG2; settings: human, HepG2 hepatocyte cells
[5] = Mammalian cytotoxicity assay, CRL-8155; settings: human, CRL-8155 lymphocyte cells
[6] = Amplex Red redox-cycling counter screen (H2O2 generation with DTT); settings: 1 mM DTT; compared with redox-cycling reference DA-3003-1
[7] = biological target: T2, SARS-CoV-2 nsp15; test: Native MS (CID/SID) ligand binding to nsp15
Description: In native MS, nsp15 was electrosprayed from non-denaturing ammonium acetate solution in the presence of an inhibitor. Inhibitor binding can be evaluated by monitoring the increase in mass of the inhibitor-nsp15 complex compared to the apo (protein with no ligand) nsp15 protein. […] Collision-induced dissociation (CID), widely available in commercial mass spectrometers, involves acceleration of protein ions into a pressurized collision cell. Upon CID, the internal energy of the protein increases from multiple collisions with neutral gas molecules.
By increasing the acceleration voltage to 120V, CID and SID of the nsp15 hexamer both released primarily monomeric species (Fig 6B and 6C), with SID resulting in lower charged monomers and additional dimers/trimers. […] The peak cluster centered at 41.2 kDa is the apo protein (sequence mass and salt adducts).
Recombinant nsp15 was buffer exchanged into 100 mM ammonium acetate (pH adjusted to 7.5 using ammonium hydroxide) using size exclusion spin columns (Zeba Micro Spin Desalting Columns, 7k MWCO, 75 μL) following manufacturer’s protocol. The protein solution was then diluted to 5 μM, supplemented with 10 μM Mn(II) acetate, and mixed with ligands at desired concentrations. […]

[8] = Solubility observation in DMSO and assay buffer; settings: diluted in assay buffer
[9] = biological target: T1, SARS-CoV-2 nsp15 endoribonuclease (endoU); test: biochemical; settings: 0.78 μM nsp15, 500 ng poly(rA) substrate, 2 h; n = 3; read-out: RNA Cleavage Assay IC50
[10] = system: SARS-CoV-2; test: microbe, parasite or virus in culture; format: cell-based; settings: Severe acute respiratory syndrome coronavirus 2, read-out: EC90 (concentration that reduces viral replication by 90%); Caco-2, microscopic observation
[11] = system: SARS-CoV-2 (isolate USA WA1/2020); test: microbe, parasite or virus in culture; format: cell-based; settings: Severe acute respiratory syndrome coronavirus 2; Calu-3, MOI = 0.5, 48 h, immunostaining; read-out: EC50 (infection)
[12] = 100 mg/kg oral dose, Sprague-Dawley rats, no reference given, cited from earlier work
[13] = mice, 100 mg/kg per day for 6 months ref 37; cited from earlier work
[14] = Cytotoxicity in Caco-2 cells; settings: human
[15] = Cell viability in Calu-3 cells (cell number per well); settings: human, CC50, Calu-3, 48 h
[16] = Cytotoxicity in Vero 76 cells (CPE assay toxicity wells); settings: African green monkey
[17] = system: SARS-CoV-2; set-up: method as in PMID 33564093; settings: at 50 μM concentrations ref 15; cited from earlier work
[18] = primary screen at 10 μM, 25 nM nsp15, 0.5 μM substrate, 1 h

## CC1(C)C(=O)N=C2C1=C(O)C(=O)c1ccccc12 [BVT-948]
[1]
  1° FRET Assay % inhibition: 90%
[1]; read-out: 2° FRET Assay IC50
  IC50: 4.96 µM
[1]; read-out: 3° FRET Assay IC50
  IC50: 0.1 µM
[2]
  DSF Assay ΔTm: -11.8 °C
  nsp15 Tm lowered by: more than 10 °C

## NCCCNc1ccc2c3c(nn2CCNCCO)-c2c(O)ccc(O)c2C(=O)c13 [Piroxantrone]
[1]; [18]
  inhibition at 10 µM: 74%
[2]
  DSF Assay ΔTm: -1.1 °C
[3]
  protection against viral CPE: Neither Piroxantrone nor MMV1580853 exhibited protection against viral CPE
[4]
  CC50 at 48 h: 33.9 µM
[5]
  CC50 at 48 h: < 1.25 µM

## CC(=O)O[C@H]1C[C@@H]2CC[C@@H]3[C@H](CC[C@@]4(C)[C@H]3C[C@H]([N+]3(C)CCCCC3)[C@@H]4OC(C)=O)[C@@]2(C)C[C@@H]1N1CCCCC1 [vecuronium bromide]
[1]
  inhibition at 10 µM: 61%

## CC(=O)[C@]1(O)Cc2c(O)c3c(c(O)c2[C@@H](O[C@H]2C[C@H](N)[C@H](O)[C@H](C)O2)C1)C(=O)c1c(O)cccc1C3=O [Carubicin]
[1]
  inhibition at 10 µM: 56%

## O=C(Nc1cccc(C2=NCCN2)c1)c1ccc(-c2ccc(C(=O)Nc3cccc(C4=NCCN4)c3)cc2)cc1 [MMV1580853]
[1]; [18]
  inhibition at 10 µM: 62%
[2]
  DSF Assay ΔTm: 0.1 °C
[6]
  Amplex Red Assay % Activity (redox cycling): < 25%
[7]; ~10 μM compound, 5 μM nsp15
  binding detected on CID- or SID-released monomers: too weak to be detected
[3]
  protection against viral CPE: Neither Piroxantrone nor MMV1580853 exhibited protection against viral CPE
[4]
  CC50 at 48 h: > 80 µM
[5]
  CC50 at 48 h: > 80 µM
[8]
  solubility: poor solubility

## Cc1cc(N)c2cc(NC(=O)Nc3ccc4nc(C)cc(N)c4c3)ccc2n1 [Aminoquinuride]
[1]
  inhibition at 10 µM: 95%

## COc1cccc2c1C(=O)c1c(O)c3c(c(O)c1C2=O)C[C@@](O)(C(=O)CO)C[C@@H]3O[C@H]1C[C@H](N)[C@H](O[C@@H]2CCCCO2)[C@H](C)O1 [pirarubicin]
[1]; 2° FRET Assay IC50
  IC50: 3.78 µM
[1]; 3° FRET Assay IC50
  IC50: 5.98 µM
[1]
  inhibition at 10 µM: 66%
[2]
  DSF Assay ΔTm: 0.4 °C

## O=C1C(NC2CCCCCCC2)=CC(=O)c2ncccc21 [Azaquinone]
[1]; [18]
  inhibition at 10 µM: 80%
[2]
  DSF Assay ΔTm: -11.4 °C
  nsp15 Tm lowered by: more than 10 °C
[6]
  Amplex Red Assay % Activity (redox cycling): >100%

## O=C1NC(=O)/C(=C\c2ccccc2)C2=C1CCCC2 [Tesimide]
[1]; [18]
  inhibition at 10 µM: 82%
[2]
  DSF Assay ΔTm: -11.7 °C
  nsp15 Tm lowered by: more than 10 °C

## Cc1nc2c(s1)C(=O)C=C(NCCN(C)C)C2=O [BN-82685]
[1]; [18]
  inhibition at 10 µM: 76%
[2]
  DSF Assay ΔTm: -11.3 °C
  nsp15 Tm lowered by: more than 10 °C
[6]
  Amplex Red Assay % Activity (redox cycling): >100%

## Cc1cc(-c2ccc(/N=N/c3c(S(=O)(=O)O)cc4cc(S(=O)(=O)O)cc(N)c4c3O)c(C)c2)ccc1/N=N/c1c(S(=O)(=O)O)cc2cc(S(=O)(=O)O)cc(N)c2c1O [Trypan Blue]
[1]; 2° FRET Assay IC50
  IC50: 5.08 µM and 7.78 µM
[1]; [18]
  1° FRET Assay % inhibition: 51%
  inhibition at 10 µM: 58%

## O=C(Nc1ccc(O)c(O)c1)c1cccc(O)c1O [Exebryl-1]
[1]; [18]
  inhibition at 10 µM: 57%
[2]
  DSF Assay ΔTm: 0.1 °C
[9]
  IC50: 9.27 µM
[7]
  Kd: ~12 µM
[3]; Severe acute respiratory syndrome coronavirus 2, Vero 76, read-out: EC50 (concentration that reduces CPE by 50%)
  EC50: 10 µM
[3]; Severe acute respiratory syndrome coronavirus 2, Vero 76, neutral red staining, read-out: EC50 (CPE)
  EC50: 16 µM
[3]; summary across Vero 76, Caco-2, and Calu-3 cells
  antiviral activity: 10 to 66 µM
[10]
  EC90: 51 µM
[11]
  EC50: 65.6 µM
[12]; at 1 h
  plasma concentration: 9 µM
[12]; by 4 h after dosing
  plasma levels: below 4 μM
[13]
  toxicity: without evident toxicity
[14]
  CC50: 61 µM
[4]
  CC50 at 48 h: > 200 µM
[5]
  CC50 at 48 h: 37.8 µM
[15]
  CC50 at 48 h: > 200 µM
[16]; CC50, Vero 76, microscopic observation
  CC50 at 5 days: 52 µM
[16]; CC50, Vero 76 cell growth, neutral red staining
  CC50 at 5 days: 57 µM

## CC1(C)CCC2=C(O1)c1ccccc1C(=O)C2=O [β-Lapachone]
[1]
  3° FRET Assay IC50: sub-micromolar
  inhibition at 10 µM: 73%
[1]; 2° FRET Assay IC50
  IC50: 2.78 µM
[1]; 3° FRET Assay IC50
  IC50: 0.31 µM
[2]
  DSF Assay ΔTm: -11.5 °C
[2]; negative Tm shift, 100 μM ligand
  nsp15 Tm lowered by: more than 10 °C
[6]
  Amplex Red Assay % Activity (redox cycling): >100%

## C[C@@H]1CNS(=O)(=O)N(c2ccc3c(C#N)nccc3c2)C1 [PF-06260414]
[1]
  1° FRET Assay % inhibition: 74%
[1]; read-out: 2° FRET Assay IC50
  IC50: 7.69 µM
[1]; read-out: 3° FRET Assay IC50
  IC50: > 80 µM

## CCc1ccccc1NC(=O)Oc1ccc2c(c1)[C@]1(C)CCN(C)O[C@@H]1N2C [Ganstigmine]
[1]
  inhibition at 10 µM: 51%

## COc1cccc2c1C(=O)c1c(O)c3c(c(O)c1C2=O)C[C@@](O)(C(=O)CO)C[C@@H]3O[C@H]1C[C@H](N)[C@H](O)[C@H](C)O1 [Doxorubicin]
[1]; 2° FRET Assay IC50
  IC50: 7.46 µM
[1]; 3° FRET Assay IC50
  IC50: 9.29 µM

## COC1=C(N)C(=O)c2nc(-c3nc(C(=O)O)c(C)c(-c4ccc(OC)c(OC)c4O)c3N)ccc2C1=O [Streptonigrin]
[1]
  3° FRET Assay IC50: sub-micromolar
  inhibition at 10 µM: 89%
[1]; 2° FRET Assay IC50
  IC50: 4.25 µM
[1]; 3° FRET Assay IC50
  IC50: 0.29 µM
[2]
  DSF Assay ΔTm: -11.5 °C
  nsp15 Tm lowered by: more than 10 °C
[6]
  Amplex Red Assay % Activity (redox cycling): >100%

## CC(C)(O/N=C(\C(=O)N[C@@H]1C(=O)N2C(C(=O)[O-])=C(C[n+]3ccccc3)CS[C@H]12)c1csc(N)n1)C(=O)O [Ceftazidime]
[1]; 2° FRET Assay IC50
  IC50: > 10 µM
[1]; 3° FRET Assay IC50
  IC50: 72 µM
[1]; [18]
  inhibition at 10 µM: 66%

## C/C1=C2/[N-][C@H]([C@H](CC(N)=O)[C@@]2(C)CCC(=O)NC[C@@H](C)OP(=O)([O-])O[C@H]2[C@@H](O)[C@@H](n3cnc4cc(C)c(C)cc43)O[C@@H]2CO)[C@]2(C)N=C(/C(C)=C3N=C(/C=C4N=C1[C@@H](CCC(N)=O)C\4(C)C)[C@@H](CCC(N)=O)[C@]\3(C)CC(N)=O)[C@@H](CCC(N)=O)[C@]2(C)CC(N)=O.[CH3-].[Co+3] [Mecobalamin]
[1]; [18]
  1° FRET Assay % inhibition: 58%
[1]; secondary dose response, 8-point 3-fold, top concentration 10 μM, read-out: 2° FRET Assay IC50
  IC50: 3.34 µM
[1]; tertiary dose response, expanded concentration range, read-out: 3° FRET Assay IC50
  IC50: 18.3 µM
[2]
  DSF Assay ΔTm: -3.4 °C

## N=C1CCCN1Cc1nc(O)nc(O)c1Cl [tipiracil]
[17]
  antiviral activity: only minimal antiviral activity
